{"source": "patent US12264185B2", "about": "“Stabilized BCL9 peptides for treatment of aberrant Wnt signaling” (WntRx Pharmaceuticals Inc., priority 2015, dated 2025)", "key": {"[1]": {"assay": "Toxicology study, 14 days i.v., female balb/c mice", "format": "in vivo", "procedure": "At the end of the study, the mice were sacrificed and various major organs were collected. The tissue samples were treated and processed as described in Example 5.5. […] The body weight of each moue was monitored throughout the study and the average body weight of each treatment group is shown in FIG. 30B. […] At the end of the study, blood from each mouse was also collected for serum chemistry and hematological analysis (complete blood cell count analysis)."}, "[2]": {"assay": "Preliminary stability study of salt form", "format": "physicochemical", "conditions": "trifluroacetic acid salt form, 2-8° C. and room temperature, at least one month"}, "[3]": {"test_system": "CT26 cells", "assay": "CT26 syngeneic mouse model of colon cancer (Balb/c)", "format": "in vivo, mice", "procedure": "The syngeneic mouse model of colon cancer using CT26 was then assessed. Male Balb/c mice were injected subcutaneously in the right flank with 5×10^4 CT26 cells each at approximately 5 weeks of age. […] Eight mice were included in each treatment group.\nThe whole blood was taken from each mouse. Lymphocytes were purified from the blood samples by Ficoll, and the cells were stained with fluorescent anti-CD4 antibody. Data were measured by flow cytometry.\nAs described above, the whole blood was taken from each mouse. Lymphocytes were purified from blood by Ficoll, and the cells were stained with fluorescent anti-CD8 antibody. Data were measured by flow cytometry.\nTo further assess whether WX-024 is capable of modulating a tumor microenvironment, tumor and blood samples were collected in anticoagulation tubes at the end of the study. Single cells separation was performed and then cells were stained for FACS analysis. For cell surface staining, CD45-PerCP-Cy5, CD4-FITC, CD8-PE-Cy7, and CD25-PE were used. For intranuclear staining, cells were permeabilized overnight and then stained with Foxp3-APC for 60 minutes.\nThe in vivo efficacy of WX-035 in treating a cancer was assessed in a syngeneic mouse model, following the procedures described in Example 5.3. Trametinib, a known MEK inhibitor, was used as a comparison. Briefly, balb/c mice were inoculated with CT26 and treatment started when tumor volume reached to about 100 mm^3. The mice were then divided into three groups and began administered with a vehicle, 40 mg/kg WX-035, or 1 mg/kg trametinib for 7 consecutive days.\nAt the end of the study described in Example 9.2, a tumor sample from each mouse was collected to assess the effect of WX-035 in modulating T cell activation. The FACS analysis of each tumor sample was performed following the procedure described in Example 5. A shown in FIG. 36A, treatment with WX-035 reduced the total amount of CD45^+ cells. […] Likewise, Foxp3^+ CD25^+ T cells were reduced by WX-035 treatment (FIG. 36C). […] Furthermore, by increasing the ratio of cytotoxic T cells over regulatory T cells, WX-035 may induce a microenvironment that favors an immune reaction beneficial for tumor treatment. Of note, the samples collected from this experiment were also assessed for LGR5 expression."}, "[4]": {"assay": "Pharmacokinetics in male ICR mice", "conditions": "mouse, plasma, 5 mg/kg"}, "[5]": {"target": "T1, β-catenin (Homo sapiens, UniProt P35222)", "T1 sequence (P35222 1-781)": "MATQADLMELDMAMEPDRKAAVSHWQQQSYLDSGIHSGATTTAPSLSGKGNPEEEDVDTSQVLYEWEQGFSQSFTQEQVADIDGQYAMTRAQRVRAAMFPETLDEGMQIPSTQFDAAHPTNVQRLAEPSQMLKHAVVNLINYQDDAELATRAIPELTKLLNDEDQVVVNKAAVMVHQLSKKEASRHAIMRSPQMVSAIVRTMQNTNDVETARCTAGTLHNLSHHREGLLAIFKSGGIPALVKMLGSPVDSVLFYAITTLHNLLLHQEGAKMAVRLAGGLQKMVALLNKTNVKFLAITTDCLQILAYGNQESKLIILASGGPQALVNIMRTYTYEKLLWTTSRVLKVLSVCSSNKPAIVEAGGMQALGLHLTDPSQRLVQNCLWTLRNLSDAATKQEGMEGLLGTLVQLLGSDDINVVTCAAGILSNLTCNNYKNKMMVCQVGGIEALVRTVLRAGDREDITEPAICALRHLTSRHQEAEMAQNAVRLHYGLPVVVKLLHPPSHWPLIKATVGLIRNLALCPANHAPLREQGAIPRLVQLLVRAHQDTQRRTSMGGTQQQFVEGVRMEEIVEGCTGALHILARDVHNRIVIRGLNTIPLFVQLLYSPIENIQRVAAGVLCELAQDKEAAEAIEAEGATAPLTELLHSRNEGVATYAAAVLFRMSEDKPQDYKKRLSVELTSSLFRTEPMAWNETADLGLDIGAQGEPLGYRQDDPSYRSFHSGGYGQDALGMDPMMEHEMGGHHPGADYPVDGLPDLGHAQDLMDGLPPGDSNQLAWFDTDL", "assay": "HTRF binding assay", "conditions": "WX-024 coupled to biotin", "description": "HTRF assays provide a means of assaying protein-protein interactions in a high-throughput format, as discussed in Degorce et al., Curr Chemical Genom. 3, 22-32 (2009). In an HTRF assay to measure a protein-protein interaction, binding of 2 proteins brings an HTRF donor and acceptor fluorophore into close proximity and generates the fluorescence energy transfer (FRET) signal. Each protein of the interaction is associated with the donor or the acceptor by an antibody reaction.\nFIG. 6A provides a schematic to depict the basis of the HTRF assay. In the HTRF assay for β-catenin (Cisbio), β-catenin is bound by an XL665-coupled antibody (ab) against β-catenin. See Degorce (2009). β-catenin bound to an XL665-coupled antibody can interact with its binding partners, such as BCL9 or BCL9 peptides.\nSA is a high-affinity binding partner to biotin and will tightly bind the SA-europium cryptate to the biotinylated stabilized polypeptides. Europium cryptate is an energy donor for an HTRF reaction. When not closely bound, there is no energy transfer between europium cryptate and XL665.\nHistidine-tagged β-catenin, BCL9 peptide labeled with biotin, europium (Eu) labeled monoclonal antibody for histidine tag, and SA-XL665 were used in the HTRF assay. […] The reaction was incubated at room temperature for 1 hour and then the plate was read."}, "[6]": {"assay": "Preliminary solubility study", "format": "physicochemical", "conditions": "water, DMSO, and PBS"}, "[7]": {"conditions": "20 mg/kg, after 2 weeks of daily dosing"}}, "note": "Several values for one entry are separate records, joined by “and”; a condition that tells them apart may be missing. Equal values may be shown once."}
{"smiles": "CC[C@H](C)[C@@H]1NC(=O)[C@@](C)(NC(=O)[C@H](CCCNC(=N)N)NC(=O)[C@H](CC(C)C)NC(=O)[C@@H](NC(=O)[C@H](CCC(N)=O)NC(=O)[C@H](CC(C)C)NC(C)=O)[C@@H](C)O)CCCC=CCCC[C@@](C)(C(=O)N[C@@H](CC(C)C)C(=O)N[C@@H](Cc2ccc3ccccc3c2)C(N)=O)NC(=O)[C@H](CCCNC(=N)N)NC(=O)[C@H](CCC(N)=O)NC1=O", "note": "[WX-024, LQTLRXaa1IQRXaa2L]", "values": [{"measurement": "blood cell count profile vs vehicle", "setting": "[1]; 20 mg/kg i.v. daily", "result": "did not differ significantly"}, {"measurement": "average body weight", "setting": "[1]; 10, 15 or 20 mg/kg i.v. daily", "result": "stabilized and was maintained throughout the study"}, {"measurement": "food consumption", "setting": "[1]; 10, 15 or 20 mg/kg i.v. daily", "result": "recovered to near baseline levels with continued treatment"}, {"measurement": "stability", "setting": "[2]", "result": "stable"}, {"measurement": "tumor volume over time compared to vehicle", "setting": "[3]; 20 mg/kg i.p. daily, 14 days", "result": "substantially lower"}, {"measurement": "tumor growth inhibition (TGI)", "setting": "[3]; 20 mg/kg i.p. daily, after 3 days of dosing", "result": 89.2, "unit": "%"}, {"measurement": "tumor growth inhibition (TGI)", "setting": "[3]; 20 mg/kg i.p. daily, after 12 days of dosing", "result": 70.0, "unit": "%"}, {"measurement": "active β-catenin expression in tumors", "setting": "[3]; 20 mg/kg, 14 days", "result": "capable of suppressing active β-catenin expression in tumors"}, {"measurement": "CD4+ T cell counts in blood", "setting": "[3]; [7]", "result": "increase"}, {"measurement": "CD8+ T cell counts in blood", "setting": "[3]; [7]", "result": "increase"}, {"measurement": "regulatory T cells in CD4+ T cell populations in tumor", "setting": "[3]; 20 mg/kg, end of study", "result": "significantly reduced"}, {"measurement": "bioavailability", "setting": "[4]; ip", "result": 73.6, "unit": "%"}, {"measurement": "Cmax", "setting": "[4]; iv", "result": "47400 ng/mL and > 30 µM"}, {"measurement": "Kd", "setting": "[5]", "result": 4.21, "unit": "nM"}, {"measurement": "solubility", "setting": "[6]", "result": "≥ 1000", "unit": "µg/mL"}]}
